Calls of active or inactive are those of the source. No rule for the calls is given here.
Test system: CCRIS mutagenicity, Ames/micronucleus/aberration tests
Experiment: CCRIS mutagenicity studies
[1] = Test System: AMES SALMONELLA TYPHIMURIUM, Strain/Indicator: TA98, Metabolic Activation: NONE, Method: STANDARD PLATE
[2] = Test System: AMES SALMONELLA TYPHIMURIUM, Strain/Indicator: TA98, Metabolic Activation: RAT, LIVER, S-9, AROCLOR 1254, Method: STANDARD PLATE
[3] = Test System: AMES SALMONELLA TYPHIMURIUM, Strain/Indicator: TA100, Metabolic Activation: NONE, Method: STANDARD PLATE
[4] = Test System: AMES SALMONELLA TYPHIMURIUM, Strain/Indicator: TA100, Metabolic Activation: RAT, LIVER, S-9, AROCLOR 1254, Method: STANDARD PLATE
[5] = Test System: AMES SALMONELLA TYPHIMURIUM, Strain/Indicator: TA102, Metabolic Activation: NONE, Method: STANDARD PLATE
[6] = Test System: AMES SALMONELLA TYPHIMURIUM, Strain/Indicator: TA1535, Metabolic Activation: NONE, Method: STANDARD PLATE
[7] = Test System: MOUSE LYMPHOMA, Strain/Indicator: L5178Y (TK+/TK-), Metabolic Activation: NONE, Method: SUSPENSION/PLATE

Q: Which results are given for `Cc1cc2nc3ccc(=[N+](C)C)cc-3sc2cc1N`?
A: mutagenic call (Test System: AMES SALMONELLA TYPHIMURIUM, Strain/Indicator: TA97A, Metabolic Activation: NONE, Method: STANDARD PLATE): active; positive; mutagenic call (Test System: AMES SALMONELLA TYPHIMURIUM, Strain/Indicator: TA97A, Metabolic Activation: RAT, LIVER, S-9, AROCLOR 1254, Method: STANDARD PLATE): active; positive; mutagenic call [1]: inactive; negative; mutagenic call [2]: active; positive; mutagenic call [3]: inactive; negative; mutagenic call [4]: active; positive; mutagenic call [5]: inactive; negative; mutagenic call (Test System: AMES SALMONELLA TYPHIMURIUM, Strain/Indicator: TA102, Metabolic Activation: RAT, LIVER, S-9, AROCLOR 1254, Method: STANDARD PLATE): active; positive

Q: With `Cc1cc2cc3ccccc3c3ccc4cccc1c4c23` as the compound, how does the mutagenic call (Test System: AMES SALMONELLA TYPHIMURIUM, Strain/Indicator: TA100, Metabolic Activation: RAT, INTACT HEPATOCYTES, AROCLOR 1254, Method: PREINCUBATION) read?
A: active; positive

Q: And the mutagenic call (Test System: AMES SALMONELLA TYPHIMURIUM, Strain/Indicator: TA100, Metabolic Activation: RAT, NADPH-FORTIFIED HOMOGENIZED HEPATOCYTES, AROCLOR 1254, Method: PREINCUBATION)?
A: active; positive

Q: Which mutagenic call [2] does the source give for `Cc1cccc2c1-c1ccccc1C2C` (centres undefined) here?
A: active; positive

Q: And the mutagenic call [4]?
A: active; positive

Q: How did the mutagenic call (Test System: AMES SALMONELLA TYPHIMURIUM, Strain/Indicator: TA98, Metabolic Activation: RAT, LIVER, S-9, AROCLOR, Method: PREINCUBATION) turn out when `CN(CCC#N)c1ccc(N=Nc2ccc3ncsc3c2)cc1` was run?
A: active; positive

Q: What about the mutagenic call (Test System: AMES SALMONELLA TYPHIMURIUM, Strain/Indicator: TA98, Metabolic Activation: RAT, LIVER, S-9, AROCLOR, Method: STANDARD PLATE) of the same compound?
A: active; positive

Q: Which results are given for `CCOC(=O)Nc1cccc2c1[nH]c1ccncc12`?
A: mutagenic call (Test System: AMES SALMONELLA TYPHIMURIUM, Strain/Indicator: TA1537, Metabolic Activation: NONE, Method: PREINCUBATION): inactive; negative; mutagenic call (Test System: AMES SALMONELLA TYPHIMURIUM, Strain/Indicator: TA1537, Metabolic Activation: RAT, LIVER, S-9, PHENOBARBITAL, Method: PREINCUBATION): inactive; negative

Q: With `Cc1cc2c(cc1C)-c1cc3ccccc3c3cccc-2c13` as the compound, how does the mutagenic call (Test System: AMES SALMONELLA TYPHIMURIUM, Strain/Indicator: TA100, Metabolic Activation: RAT, LIVER, S-9, AROCLOR 1254) read?
A: active; positive

Q: For `CC(C)CCC[C@@H](C)[C@H]1CC[C@H]2[C@@H]3C[C@@H]4O[C@@]45C[C@@H](O)CC[C@]5(C)[C@H]3CC[C@]12C`, which mutagenic call (Test System: AMES SALMONELLA TYPHIMURIUM, Strain/Indicator: TA97, Metabolic Activation: NONE, Method: STANDARD PLATE) is on record?
A: inactive; negative

Q: What about the mutagenic call [1] of the same compound?
A: inactive; negative

Q: And the mutagenic call [3]?
A: inactive; negative

Q: What about the mutagenic call [5] of the same compound?
A: inactive; negative

Q: And the mutagenic call [6]?
A: inactive; negative

Q: And the mutagenic call (Test System: AMES SALMONELLA TYPHIMURIUM, Strain/Indicator: TA1538, Metabolic Activation: RAT, LIVER, S-9, AROCLOR 1254 (10%), Method: STANDARD PLATE)?
A: active; positive

Q: And the mutagenic call (Test System: CHINESE HAMSTER V-79, Strain/Indicator: V-79/6-THIOGUANINE, Metabolic Activation: NONE)?
A: active; positive

Q: What about the mutagenic call (Test System: CHINESE HAMSTER V-79, Strain/Indicator: V-79/8-AZAGUANINE, Metabolic Activation: NONE) of the same compound?
A: active; positive

Q: What about the mutagenic call (Test System: CHINESE HAMSTER V-79, Strain/Indicator: V-79/OUABAIN, Metabolic Activation: NONE) of the same compound?
A: inactive; negative

Q: And the mutagenic call [7]?
A: active; positive. reevaluation of results: equivocal

Q: And the mutagenic call (Test System: Mouse lymphoma, Strain/Indicator: L5178Y (tk+/tk-), Metabolic Activation: Rat, Liver, S-9, Aroclor 1254, Method: Suspension/plate)?
A: inactive; inconclusive (previous evaluation negative)

Q: How did the mutagenic call (Test System: AMES SALMONELLA TYPHIMURIUM, Strain/Indicator: TA97, Metabolic Activation: HAMSTER, LIVER, S-9, AROCLOR 1254 (10%), Method: PREINCUBATION) turn out when `Nc1ccc(O)c([N+](=O)[O-])c1` was run?
A: inactive; negative

Q: And the mutagenic call (Test System: AMES SALMONELLA TYPHIMURIUM, Strain/Indicator: TA97, Metabolic Activation: NONE, Method: PREINCUBATION)?
A: inactive; negative

Q: What about the mutagenic call (Test System: AMES SALMONELLA TYPHIMURIUM, Strain/Indicator: TA97, Metabolic Activation: RAT, LIVER, S-9, AROCLOR 1254 (10%), Method: PREINCUBATION) of the same compound?
A: inactive; negative

Q: What about the mutagenic call (Test System: AMES SALMONELLA TYPHIMURIUM, Strain/Indicator: TA98, Metabolic Activation: HAMSTER, LIVER, S-9, AROCLOR 1254 (10%), Method: PREINCUBATION) of the same compound?
A: inactive; negative

Q: What about the mutagenic call (Test System: AMES SALMONELLA TYPHIMURIUM, Strain/Indicator: TA98, Metabolic Activation: NONE, Method: PREINCUBATION) of the same compound?
A: active; positive

Q: And the mutagenic call [1]?
A: inactive; negative

Q: What about the mutagenic call (Test System: AMES SALMONELLA TYPHIMURIUM, Strain/Indicator: TA98, Metabolic Activation: RAT, LIVER, S-9, AROCLOR 1254 (10%), Method: PREINCUBATION) of the same compound?
A: inactive; negative

Q: And the mutagenic call [2]?
A: inactive; negative

Q: What about the mutagenic call (Test System: AMES SALMONELLA TYPHIMURIUM, Strain/Indicator: TA100, Metabolic Activation: HAMSTER, LIVER, S-9, AROCLOR 1254 (10%), Method: PREINCUBATION) of the same compound?
A: inactive; negative

Q: What about the mutagenic call (Test System: AMES SALMONELLA TYPHIMURIUM, Strain/Indicator: TA100, Metabolic Activation: NONE, Method: PREINCUBATION) of the same compound?
A: inactive; negative

Q: What about the mutagenic call [3] of the same compound?
A: inactive; negative

Q: And the mutagenic call (Test System: AMES SALMONELLA TYPHIMURIUM, Strain/Indicator: TA100, Metabolic Activation: RAT, LIVER, S-9, AROCLOR 1254 (10%), Method: PREINCUBATION)?
A: inactive; negative

Q: What about the mutagenic call [4] of the same compound?
A: inactive; negative

Q: And the mutagenic call (Test System: AMES SALMONELLA TYPHIMURIUM, Strain/Indicator: TA1535, Metabolic Activation: HAMSTER, LIVER, S-9, AROCLOR 1254 (10%), Method: PREINCUBATION)?
A: inactive; negative

Q: What about the mutagenic call (Test System: AMES SALMONELLA TYPHIMURIUM, Strain/Indicator: TA1535, Metabolic Activation: NONE, Method: PREINCUBATION) of the same compound?
A: inactive; negative

Q: And the mutagenic call [6]?
A: inactive; negative

Q: And the mutagenic call (Test System: AMES SALMONELLA TYPHIMURIUM, Strain/Indicator: TA1535, Metabolic Activation: RAT, LIVER, S-9, AROCLOR 1254 (10%), Method: PREINCUBATION)?
A: inactive; negative

Q: And the mutagenic call (Test System: AMES SALMONELLA TYPHIMURIUM, Strain/Indicator: TA1535, Metabolic Activation: RAT, LIVER, S-9, AROCLOR 1254, Method: STANDARD PLATE)?
A: inactive; negative

Q: And the mutagenic call (Test System: AMES SALMONELLA TYPHIMURIUM, Strain/Indicator: TA1537, Metabolic Activation: NONE, Method: STANDARD PLATE)?
A: inactive; negative

Q: What about the mutagenic call (Test System: AMES SALMONELLA TYPHIMURIUM, Strain/Indicator: TA1537, Metabolic Activation: RAT, LIVER, S-9, AROCLOR 1254, Method: STANDARD PLATE) of the same compound?
A: inactive; negative

Q: What about the mutagenic call (Test System: AMES SALMONELLA TYPHIMURIUM, Strain/Indicator: TA1538, Metabolic Activation: NONE, Method: STANDARD PLATE) of the same compound?
A: inactive; negative

Q: And the mutagenic call (Test System: AMES SALMONELLA TYPHIMURIUM, Strain/Indicator: TA1538, Metabolic Activation: RAT, LIVER, S-9, AROCLOR 1254, Method: STANDARD PLATE)?
A: inactive; negative

Q: What about the mutagenic call (Test System: E. COLI, Strain/Indicator: WP2 UVRA, Metabolic Activation: HAMSTER, LIVER, S-9, AROCLOR 1254, Method: STANDARD PLATE) of the same compound?
A: inactive; negative

Q: What about the mutagenic call (Test System: E. COLI, Strain/Indicator: WP2 UVRA, Metabolic Activation: HAMSTER, LIVER, S-9, Method: STANDARD PLATE) of the same compound?
A: inactive; negative

Q: And the mutagenic call (Test System: E. COLI, Strain/Indicator: WP2 UVRA, Metabolic Activation: MOUSE, LIVER, S-9, AROCLOR 1254, Method: STANDARD PLATE)?
A: inactive; negative

Q: And the mutagenic call (Test System: E. COLI, Strain/Indicator: WP2 UVRA, Metabolic Activation: MOUSE, LIVER, S-9, Method: STANDARD PLATE)?
A: inactive; negative

Q: And the mutagenic call (Test System: E. COLI, Strain/Indicator: WP2 UVRA, Metabolic Activation: NONE, Method: STANDARD PLATE)?
A: inactive; negative

Q: And the mutagenic call (Test System: E. COLI, Strain/Indicator: WP2 UVRA, Metabolic Activation: RAT, LIVER, S-9, AROCLOR 1254, Method: STANDARD PLATE)?
A: inactive; negative

Q: What about the mutagenic call (Test System: E. COLI, Strain/Indicator: WP2 UVRA, Metabolic Activation: RAT, LIVER, S-9, Method: STANDARD PLATE) of the same compound?
A: inactive; negative

Q: What about the mutagenic call [7] of the same compound?
A: active; positive

Q: And the mutagenic call (Test System: MOUSE LYMPHOMA, Strain/Indicator: L5178Y (TK+/TK-), Metabolic Activation: RAT, LIVER, S-9, AROCLOR 1254, Method: SUSPENSION/PLATE)?
A: active; positive

Source: PubChem BioAssay AID1259407 (Chemical Carcinogenesis Research Information System (CCRIS), 2018)
